# Results from US11077115B2, “Rorgamma modulators and uses thereof” (Genfit, priority 2017, dated 2021).
# pIC50: −log10 of the molar value.
# Key:
# [1] = target: T1, human RORγt (Homo sapiens, UniProt P51449); experiment: RORE Luciferase/RORγt transactivation assay (IL-17 promoter luciferase reporter in COS-7 cells); type: cell-based; design: V5-His (named only through the vector pcDNA3.1D/V5-His-TOPO); expressed in transfected cells; host or cells: COS-7 (monkey kidney); conditions: RORγt activity inhibition, luciferase activity in transfected COS-7 cells, 20 h
# T1 sequence (P51449 1-497 isoform P51449-2): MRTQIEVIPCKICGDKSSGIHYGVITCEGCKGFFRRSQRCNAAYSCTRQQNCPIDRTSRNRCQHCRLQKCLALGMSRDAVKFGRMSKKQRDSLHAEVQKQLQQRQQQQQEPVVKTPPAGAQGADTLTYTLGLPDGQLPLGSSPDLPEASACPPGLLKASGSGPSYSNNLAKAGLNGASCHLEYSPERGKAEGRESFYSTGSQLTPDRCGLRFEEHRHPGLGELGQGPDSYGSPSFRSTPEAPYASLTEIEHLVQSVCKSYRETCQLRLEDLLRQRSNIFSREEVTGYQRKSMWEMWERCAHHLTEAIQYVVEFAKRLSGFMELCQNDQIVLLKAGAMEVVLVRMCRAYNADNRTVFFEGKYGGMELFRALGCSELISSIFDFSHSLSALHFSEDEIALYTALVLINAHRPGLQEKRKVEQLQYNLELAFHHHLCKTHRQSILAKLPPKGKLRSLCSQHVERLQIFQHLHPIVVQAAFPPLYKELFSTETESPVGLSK
# Experimental: It is well known that RORγ binds to a conserved non-coding sequence (CNS) enhancer element in the IL-17 promoter.
# Culture medium was changed every 2 days.
# The 4.3 Kb human IL-17 promoter containing the RORγ-specific CNS enhancer element was PCR amplified from human genomic DNA and cloned into a pGL3-TKLuc2Cp reporter plasmid.
# The luciferase reporter plasmid and the RORγt overexpression plasmid were transfected into COS-7 cell line using 4 μL JetPEI™/μg of DNA. Briefly, 150 ng of DNA (ration 1/2 between RORE-Tk Luc2Cp and cDNA RORγt or the empty vector for the negative control) was served to transfect adherent COS-7 cells in a […] culture flask, in complete medium (see cos-7 cell line culture).
# Cells were then detached (using trypsin) and washed by centrifugation at 300 g for 10 minutes. Cell pellet was resuspended in serum free/phenol red free DMEM and seeded in 384 well plates at a density of 10000 cells/well and then incubated for 4 h at 37° C.
# Compounds were dissolved in 100% DMSO to obtain 10 mM stock solutions. For each compound, test concentrations were diluted in serum free/phenol red free DMEM using the Genesis Freedom 200™ (TECAN) and added to the cells to obtain a 0.3% DMSO final concentration (in a final volume of 40 μL per well).
# The luciferase activity was then measured with 40 μL/well steady-Glo Luciferase assay system (Promega, Madison, Wis.) and after incubation at room temperature for 30 minutes. The luminescence was estimated using the Ultra384 reader (TECAN). Data were collected and analyzed using GraphPad Prism software (GraphPad Software V5.02, San Diego Calif. USA). IC50 in μM and E max in % were reported for each compound.
# [2] = target: T2, RORγt ligand-binding domain (RORγt-LBD) (Homo sapiens, UniProt P51449); experiment: Time-resolved FRET (TR-FRET) RORγt coactivator assay (RIP140 peptide displacement); type: biochemical; conditions: ligand-dependent coactivator-RORγt binding
# T2 construct: 20 nM recombinantly expressed RORγ-LBD fused to GST
# T2 sequence (P51449 269-508 limits assumed): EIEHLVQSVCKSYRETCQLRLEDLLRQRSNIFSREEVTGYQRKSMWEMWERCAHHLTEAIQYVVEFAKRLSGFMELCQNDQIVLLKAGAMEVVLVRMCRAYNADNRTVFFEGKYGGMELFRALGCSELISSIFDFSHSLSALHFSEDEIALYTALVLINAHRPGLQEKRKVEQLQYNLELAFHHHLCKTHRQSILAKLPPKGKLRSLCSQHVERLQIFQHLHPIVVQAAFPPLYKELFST
# From the text: Time-resolved FRET (TR-FRET) RORγt coactivator assay was used to identify RORγ modulator compounds with ligand-dependent coactivator displacement. The assay uses a d2-labeled anti-GST antibody, synthetic N-terminally biotinylated peptide which is derived from nuclear receptor coactivator protein RIP140, and a RORγt ligand-binding domain (RORγt-LBD) that is tagged with glutathione-S-transferase (GST). The influence of compounds on the RORγ-peptide interaction relies on the binding dependent energy transfer from a donor to an acceptor fluorophor attached to the binding partner of interest. […] For reduction of background from compound fluorescence, TR-FRET method makes use of generic fluorophore labels and time resolved detection.
# The assays were done in a final volume of 20 μl in a 384 well plate in a CHAPS buffer (2 mM CHAPS; 1 mM DTT, 2 mM EDTA; 0.1% BSA), containing 20 nM recombinantly expressed RORγ-LBD fused to GST, 30 nM N-terminally biotinylated peptide, 1 nM streptavidin-terbium conjugate and 20 nM d2 labeled-anti-GST. Test compounds were diluted using 10 mM stock solution. The range of the final compound concentrations used in this test was from 0.3 nM to 30 μM (logarithmic scale). DMSO content of the samples was kept at 1%. The assay was equilibrated for 2 hours in the dark at room temperature in 384 well plates (Falcon). The signal was detected by an Ultra384 reader (TECAN). […] Compounds that promote coactivator displacement induce a concentration-dependent decrease in time-resolved fluorescent signal. Data were collected and analyzed using GraphPad Prism software (GraphPad Software V5.02, San Diego Calif. USA). IC50 in μM and E max in % were reported for each compound.
SMILES,pIC50 [1],pIC50 [2]
"Cc1ccc(C(NC(=O)Cc2cc(N3CCS(=O)(=O)CC3)ccc2C)c2ccccc2)c(N2CCOCC2)c1 (centres unmarked) [Cpd. 7, 2-[5-(1,1-dioxo-1-thiomorpholin-4-yl)-2-methylphenyl]-N-{[4-methyl-2-(morpholin-4-yl)phenyl](phenyl)methyl}acetamide]",5.00 to 6.00,6.00 to 7.00
"Cc1ccc(C(NC(=O)Cc2cc(N3CCOCC3)ccc2F)c2ccccc2)c(N2CCCCC2)c1 (centres unmarked) [Cpd. 8, 2-[2-fluoro-5-(morpholin-4-yl)phenyl]-N-{[4-methyl-2-(piperidin-1-yl)phenyl](phenyl)methyl}acetamide]",5.00 to 6.00,6.00 to 7.00
"COc1ccc(C(NC(=O)Cc2ccc(N3CCS(=O)(=O)CC3)c(C)c2)c2ccc(C)o2)c(N2CCC(C(F)(F)F)CC2)c1 (centres unmarked) [Cpd. 14, 2-[4-(1,1-dioxo-1-thiomorpholin-4-yl)-3-methylphenyl]-N-({4-methoxy-2-[4-(trifluoromethyl)piperidin-1-yl]phenyl}(5-methylfuran-2-yl)methyl)acetamide]",6.00 to 7.00,6.00 to 7.00
"Cc1ccc(C(NC(=O)Cc2cnc(N3CCOCC3)nc2)c2ccc(C)o2)c(N2CCCCC2)c1 (centres unmarked) [Cpd. 26, N-{[4-methyl-2-(piperidin-1-yl)phenyl](5-methylfuran-2-yl)methyl}-2-[2-(morpholin-4-yl)pyrimidin-5-yl]acetamide]",6.00 to 7.00,> 6.00
"COc1cc(CC(=O)NC(c2ccc(C)o2)c2ccc(C)cc2N2CCCCC2)ccc1N1CCS(=O)(=O)CC1 (centres unmarked) [Cpd. 29, 2-[4-(1,1-dioxo-1-thiomorpholin-4-yl)-3-methoxyphenyl]-N-{[4-methyl-2-(piperidin-1-yl)phenyl](5-methylfuran-2-yl)methyl}acetamide]",6.00 to 7.00,> 6.00
"Cc1ccc(C(NC(=O)Cc2cnc(N3CCS(=O)(=O)CC3)nc2)c2ccc(C)o2)c(Br)c1 (centres unmarked) [Cpd. 34, N-[(2-bromo-4-methylphenyl)(5-methylfuran-2-yl)methyl]-2-[2-(1,1-dioxo-1-thiomorpholin-4-yl)pyrimidin-5-yl]acetamide]",6.00 to 7.00,6.00 to 7.00

# The remaining lines, values ahead:
pIC50 [1],pIC50 [2],SMILES
5.00 to 6.00,5.00 to 6.00,"Cc1ccc(N2CCS(=O)(=O)CC2)cc1CC(=O)NC(c1ccccc1)c1ccccc1N1CCCCC1 (centres unmarked) [Cpd. 2, 2-[5-(1,1-dioxo-1-thiomorpholin-4-yl)-2-methylphenyl]-N-{phenyl[2-(piperidin-1-yl)phenyl]methyl}acetamide]"
5.00 to 6.00,6.00 to 7.00,"Cc1ccc(C(NC(=O)Cc2cc(N3CCS(=O)(=O)CC3)ccc2F)c2ccccc2)c(N2CCOCC2)c1 (centres unmarked) [Cpd. 4, 2-[5-(1,1-dioxo-1-thiomorpholin-4-yl)-2-fluorophenyl]-N-{[4-methyl-2-(morpholin-4-yl)phenyl](phenyl)methyl}acetamide]"
5.00 to 6.00,6.00 to 7.00,"Cc1ccc(N2CCCCC2)c(C(NC(=O)Cc2cnc(N3CCS(=O)(=O)CC3)nc2)c2ccc(C)o2)c1 (centres unmarked) [Cpd. 17, 2-[2-(1,1-dioxo-1-thiomorpholin-4-yl)pyrimidin-5-yl]-N-{[5-methyl-2-(piperidin-1-yl)phenyl](5-methylfuran-2-yl)methyl}acetamide]"
5.00 to 6.00,6.00 to 7.00,"Cc1ccc(C(NC(=O)Cc2ccc(N3CCS(=O)(=O)CC3)cc2)c2ccc(C)o2)c(C(F)(F)F)c1 (centres unmarked) [Cpd. 24, 2-[4-(1,1-dioxo-1-thiomorpholin-4-yl)phenyl]-N-{[4-methyl-2-(trifluoromethyl)phenyl](5-methylfuran-2-yl)methyl}acetamide]"
6.00 to 7.00,6.00 to 7.00,"COc1ccc(CC(=O)NC(c2ccc(C)o2)c2ccc(C)cc2N2CCCCC2)cc1N1CCS(=O)(=O)CC1 (centres unmarked) [Cpd. 30, 2-[3-(1,1-dioxo-1-thiomorpholin-4-yl)-4-methoxyphenyl]-N-{[4-methyl-2-(piperidin-1-yl)phenyl](5-methylfuran-2-yl)methyl}acetamide]"
–,5.00 to 6.00,"Cc1ccc(C(NC(=O)Cc2cnc(N3CCS(=O)(=O)CC3)nc2)c2ccc(C)o2)c(Cl)c1 (centres unmarked) [Cpd. 51, N-[(2-chloro-4-methylphenyl)(5-methylfuran-2-yl)methyl]-2-[2-(1,1-dioxo-1-thiomorpholin-4-yl)pyrimidin-5-yl]acetamide]"
